Key:
[1] = target: T1, NR1/2A receptors (Rattus norvegicus, UniProt P35439+Q00959); assay: whole-cell patch-clamp of transfected HEK293 cells, NR1/2A, 100 μM glutamate plus 10 μM glycine; assay type: cell-based
T1 construct: expressed in transfected cells; host or cells: HEK293 (ATCC CRL1573), transient transfection
Method: (§1) Human embryonic kidney 293 (HEK293) fibroblasts (ATCC CRL1573) were cultured in minimal essential medium supplemented with 10% fetal bovine serum and 2 mM glutamine (Life Technologies, Rockville, Md.). Cells were plated on poly-D-lysine-coated 35 mm nunc dishes, transfected by the LipofectaminePLUS method (Life Technologies), and examined functionally between 18-48 h post transfection. The following receptor subunit cDNAs were used: nAChR-α3 (nicotinic acetylcholine receptor-α3; accession no. L31621), nAChR-α4 (accession no. L31620), nAChR-β2 (accession no. L31622), nAChR-β4 (accession no. U42976), 5-HT3R-A (5-HT3A receptor; accession no. M74425), NR1 (N-methyl-D-aspartate receptor 1; accession no. X63255), NR2A (accession no. X91561), and NR2B (accession no. M91562). The nAchR and NR clones were rat; the 5-HT3R-A clone was mouse. Co-transfection of enhanced green fluorescent protein (“EGFP”) (10% of total cDNA) provided a marker to identify transfected cells. Transfected cells were selected for EGFP expression and examined by voltage-clamp recording in the whole-cell configuration using an Axopatch 200B patch-clamp amplifier (Axon Instruments, Foster City, Calif.). Thin-walled borosilicate glass microelectrodes (TW150F, World Precision Instruments, Sarasota, Fla.) had resistances of 3-5 MΩ when filled with an internal solution containing (in mM): 135 CsCl, 10 CsF, 10 HEPES (N-[2-hydroxyethyl]piperazine-N′-[2-ethanesulfonic acid]), 5 EGTA (ethylene glycol-bis[β-aminoethyl ether]-N,N,N′,N′-tetraacetic acid), 1 MgCl2, 0.5 CaCl2, pH 7.2. Whole-cell capacitance and series resistance were recorded and adequately compensated using the available circuitry of the amplifier. Current responses were filtered at 1 kHz with an 8-pole Bessel filter (Cygnus Technologies, Delaware Water Gap, Pa.), digitized at 3 kHz, and stored on a Macintosh PowerPC-G3 computer using an ITC-16 interface (Instrutech, Great Neck, N.Y.) under control of the data acquisition and analysis program Synapse (Synergy Research, Gaithersburg, Md.). Cells were continuously superfused with extracellular solution containing (in mM): 150 NaCl, 3 KCl, 5 HEPES, 1 MgCl2, 1.8 CaCl2, 10 glucose, and 0.1 mg/ml phenol red, pH 7.3 (MgCl2 was omitted from all solutions used for the study of NMDA receptors). […] Control, agonist, and drug solutions were applied to individual cells by rapid perfusion. Solutions were driven by a syringe pump through a flowpipe having 4 inputs that converge at a single common output of approximately 100 μm diameter. Rapid switching between inputs was achieved using a set of upstream solenoid valves (Lee Co., Westbrook, Conn.) under computer control; the solution exchange rate was ˜5 ms as measured from liquid junction currents.
(§2) To study these, transfected HEK293 cells expressing NR1/2A or NR1/2B receptors were voltage-clamped to −70 mV and stimulated with 100 μM glutamate plus 10 μM glycine at 30 s intervals. […] In FIGS. 3A and 3B, open bars depict the timing of agonist application, filled bars depict the timing of co-application of 20 μM IBO or 20 μM 18MC, and inhibition was measured relative to control at the end of the drug application (indicated by arrows).

[2] = target: T2, NR1/2B receptors (Rattus norvegicus, UniProt P35439+Q00960); assay: whole-cell patch-clamp of transfected HEK293 cells, NR1/2B, 100 μM glutamate plus 10 μM glycine; assay type: cell-based
T2 construct: expressed in transfected cells; host or cells: HEK293 (ATCC CRL1573), transient transfection
T2 sequence (Q00960 27-1482, other chains not shown): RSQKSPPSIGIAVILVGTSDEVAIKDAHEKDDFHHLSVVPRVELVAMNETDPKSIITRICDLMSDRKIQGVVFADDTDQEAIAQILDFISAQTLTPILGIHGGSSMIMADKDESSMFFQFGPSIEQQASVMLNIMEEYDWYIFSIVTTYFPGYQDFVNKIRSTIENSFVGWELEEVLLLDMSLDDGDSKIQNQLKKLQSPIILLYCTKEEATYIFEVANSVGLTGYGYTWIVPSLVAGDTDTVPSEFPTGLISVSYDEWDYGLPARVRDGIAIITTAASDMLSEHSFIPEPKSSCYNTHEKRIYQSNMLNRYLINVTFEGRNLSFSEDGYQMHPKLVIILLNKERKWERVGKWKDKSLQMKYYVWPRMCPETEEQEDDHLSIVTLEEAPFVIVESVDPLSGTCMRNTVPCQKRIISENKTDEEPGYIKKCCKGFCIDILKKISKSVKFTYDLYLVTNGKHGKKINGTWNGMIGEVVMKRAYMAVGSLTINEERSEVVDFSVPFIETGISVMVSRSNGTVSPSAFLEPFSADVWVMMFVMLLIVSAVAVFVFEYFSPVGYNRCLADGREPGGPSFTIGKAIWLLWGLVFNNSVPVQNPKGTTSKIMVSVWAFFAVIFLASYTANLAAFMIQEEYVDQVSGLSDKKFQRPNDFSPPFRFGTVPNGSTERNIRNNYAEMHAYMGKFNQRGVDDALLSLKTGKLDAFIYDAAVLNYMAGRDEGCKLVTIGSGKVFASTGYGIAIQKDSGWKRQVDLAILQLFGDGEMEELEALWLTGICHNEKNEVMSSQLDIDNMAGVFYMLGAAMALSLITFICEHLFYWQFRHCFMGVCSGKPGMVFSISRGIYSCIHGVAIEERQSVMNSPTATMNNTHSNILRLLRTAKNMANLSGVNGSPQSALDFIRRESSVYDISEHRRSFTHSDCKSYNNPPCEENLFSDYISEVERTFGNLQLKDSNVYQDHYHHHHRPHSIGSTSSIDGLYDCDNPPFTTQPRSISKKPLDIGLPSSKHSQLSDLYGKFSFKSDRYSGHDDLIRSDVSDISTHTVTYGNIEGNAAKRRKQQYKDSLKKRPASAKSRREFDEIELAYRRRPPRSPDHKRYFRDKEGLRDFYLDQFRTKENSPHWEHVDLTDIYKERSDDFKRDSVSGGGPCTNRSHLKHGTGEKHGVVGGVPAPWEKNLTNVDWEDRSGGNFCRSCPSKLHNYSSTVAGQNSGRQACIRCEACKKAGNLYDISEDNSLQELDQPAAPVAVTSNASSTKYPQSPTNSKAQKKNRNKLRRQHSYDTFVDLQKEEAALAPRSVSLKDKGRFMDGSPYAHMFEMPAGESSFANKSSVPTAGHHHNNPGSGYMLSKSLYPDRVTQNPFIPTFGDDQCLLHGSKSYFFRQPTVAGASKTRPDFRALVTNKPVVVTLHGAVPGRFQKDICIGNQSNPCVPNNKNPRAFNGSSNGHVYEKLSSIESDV
Method: as §1, §2

[3] = test system: morphine self-administration; assay: intravenous morphine self-administration; assay type: in vivo, rat; details: 18-methoxycoronaridine 1 mg/kg i.p., dextromethorphan 5 mg/kg s.c.
Method: Dextromethorphan hydrobromide (5 mg/kg; Sigma/RBI, St. Louis, Mo.) was dissolved in saline and injected subcutaneously 20 minutes before testing. Mecamylamine hydrochloride (1 mg/kg; Sigma/RBI, St. Louis, Mo.) was dissolved in physiological saline and injected intraperitoneally 30 minutes before testing. All rats received two injections. For rats that received a single drug, half of them also received the appropriate saline/vehicle injection corresponding to each of the other two drugs.
Naive female Long-Evans derived rats (250 g; Charles River, N.Y.) were maintained on a normal 12 h light cycle (lights on at 7:00 a.m., lights off at 7:00 p.m.). For all experiments the “Principles of Laboratory Animal Care” (NIH publication No. 85-23, revised 1985, which is hereby incorporated by reference) were followed.
The intravenous self-administration procedure described in Glick et al., “18-MC Reduces Methamphetamine and Nicotine Self-administration in Rats,” NeuroReport 11:2013-2015 (2000) (“Glick I”), which is hereby incorporated by reference, was employed. Briefly, responses on either of two levers (mounted 15 cm apart on the front wall of each operant test cage) were recorded on an IBM compatible computer with a Med Associates, Inc. interface. The intravenous self-administration system consisted of polyethylene-silicone cannulas constructed according to the design of Weeks, “Long-term Intravenous Infusion,” pp. 155-168 in Myers (ed.), Methods in Psychobiology, Vol. 2, New York: Academic Press (1972) (“Weeks”), which is hereby incorporated by reference; Instech harnesses and swivels; and Harvard Apparatus infusion pumps (#55-2222). Shaping of the bar-press response was initially accomplished by training rats to bar-press for water. Cannulas were then implanted in the external jugular vein according to procedures described in Weeks, which is hereby incorporated by reference. Self-administration testing began with a 16-h nocturnal session followed by daily 1-h sessions, 5 days (Monday-Friday) a week. A lever-press response produced a 10 μl infusion of drug solution (0.01 mg of morphine sulfate) in about 0.2 s or a 50 μl infusion of drug solution (0.025 mg of methamphetamine sulfate) in about 1 s. Since all rats generally weighed 250±20 g, each response delivered approximately 0.04 mg/kg of morphine or 0.1 mg/kg of methamphetamine. Experiments to assess the effects of experimental treatments were begun when baseline self-administration rates stabilized (≦10% variation from one day to the next across 5 days), usually after 2 weeks of testing.
Each data point represents the mean (±S.E.M.) percent of baseline of 6-8 rats. Significant differences between baseline and treatment are indicated by an asterisk (paired t-test, P<0.01-0.001).
Each data point represents the mean (±S.E.M.) percent of baseline of 5-8 rats. Significant differences between baseline and treatment are indicated by an asterisk (paired t-test), P<0.05-0.01).

T1 sequence (Q00959 20-1464 limits assumed, other chains not shown): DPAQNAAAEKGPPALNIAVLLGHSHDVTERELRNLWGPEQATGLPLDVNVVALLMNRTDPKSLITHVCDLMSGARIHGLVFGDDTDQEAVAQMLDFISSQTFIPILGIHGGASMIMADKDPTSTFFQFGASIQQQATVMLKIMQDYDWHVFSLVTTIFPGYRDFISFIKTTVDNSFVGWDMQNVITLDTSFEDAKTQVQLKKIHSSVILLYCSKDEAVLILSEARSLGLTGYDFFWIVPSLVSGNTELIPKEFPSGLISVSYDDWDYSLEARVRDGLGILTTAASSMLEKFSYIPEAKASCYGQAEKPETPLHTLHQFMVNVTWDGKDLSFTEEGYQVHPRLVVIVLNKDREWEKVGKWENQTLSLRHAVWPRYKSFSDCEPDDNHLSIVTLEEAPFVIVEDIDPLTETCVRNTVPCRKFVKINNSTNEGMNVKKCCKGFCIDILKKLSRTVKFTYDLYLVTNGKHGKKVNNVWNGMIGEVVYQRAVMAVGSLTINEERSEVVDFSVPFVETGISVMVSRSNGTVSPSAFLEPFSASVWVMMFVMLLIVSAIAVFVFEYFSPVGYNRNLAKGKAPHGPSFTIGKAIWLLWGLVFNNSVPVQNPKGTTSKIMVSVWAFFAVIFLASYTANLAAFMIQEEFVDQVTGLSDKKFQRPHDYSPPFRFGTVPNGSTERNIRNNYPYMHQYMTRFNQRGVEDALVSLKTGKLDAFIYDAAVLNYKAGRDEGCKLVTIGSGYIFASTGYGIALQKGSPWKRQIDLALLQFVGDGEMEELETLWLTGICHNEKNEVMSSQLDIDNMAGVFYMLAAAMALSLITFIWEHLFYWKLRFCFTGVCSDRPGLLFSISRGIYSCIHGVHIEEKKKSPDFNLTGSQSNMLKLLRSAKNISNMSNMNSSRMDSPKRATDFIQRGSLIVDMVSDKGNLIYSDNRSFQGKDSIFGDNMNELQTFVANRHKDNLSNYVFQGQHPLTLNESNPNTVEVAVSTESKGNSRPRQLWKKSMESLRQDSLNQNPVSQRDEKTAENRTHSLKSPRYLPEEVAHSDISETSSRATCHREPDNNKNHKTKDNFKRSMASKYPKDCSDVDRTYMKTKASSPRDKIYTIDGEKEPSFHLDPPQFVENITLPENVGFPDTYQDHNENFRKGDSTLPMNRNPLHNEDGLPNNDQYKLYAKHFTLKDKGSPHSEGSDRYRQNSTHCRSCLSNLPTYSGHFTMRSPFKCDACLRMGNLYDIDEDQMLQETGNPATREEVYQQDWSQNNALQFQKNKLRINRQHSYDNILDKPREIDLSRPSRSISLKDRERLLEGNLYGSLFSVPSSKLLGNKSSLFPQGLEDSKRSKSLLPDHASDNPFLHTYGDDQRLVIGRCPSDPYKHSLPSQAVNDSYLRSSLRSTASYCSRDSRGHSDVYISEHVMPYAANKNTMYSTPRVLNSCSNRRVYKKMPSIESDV

Structure (SMILES): COCC[C@H]1CC2CN3CCc4c([nH]c5ccccc45)[C@](C(=O)OC)(C2)[C@H]13 [18-methoxycoronaridine]
- response to drug applied alone (agonist activity) ([1]; 20 μM drug alone): did not produce any response
- inhibition of agonist-evoked response ([1]; concentrations up to 20 μM, N=3, FIG. 3A): failed to inhibit
- response to drug applied alone (agonist activity) ([2]; 20 μM drug alone): did not produce any response
- inhibition of agonist-evoked response ([2]; concentrations up to 20 μM, N=5, FIG. 3B): failed to inhibit
- effect on morphine self-administration (percent of baseline) ([3]; Example 5, FIG. 5: mecamylamine 1 mg/kg i.p., 6-8 rats): none of the drugs administered alone, significantly decreased
- effect on morphine self-administration (percent of baseline) ([3]; Example 6, FIG. 8: mecamylamine 1 mg/kg i.p., bupropion 5 mg/kg i.p., 5-8 rats): none of the drugs administered alone, significantly decreased
